The record followed here is publication PMC6651548, “Synthesis and AChE Inhibitory Activity of Novel Thiazolylhydrazone Derivatives” (Molecules, 2019).

In assay [1] the target is T1, AChE (Homo sapiens, UniProt P22303). As to the kind of experiment: Enzyme kinetic studies of AChE inhibition (Lineweaver-Burk plots). In kind it is biochemical. The procedure: . The type of inhibition was estimated by means of linear Lineweaver-Burk […], and the substrate speed curves in the presence and absence of 3a, 3c and 3i of the strongest compounds were verified in the enzyme kinetics analysis. […] In the initial velocity measurements, different substrate concentrations, ranging from 600 µM to 18.75 µM, were used for the AChE enzyme. The secondary plots of the Km/Vmax (slope) versus changing concentrations were used to determine Ki (intercept on the x-axis) values of compounds [30]. […] Reversible inhibition comprises of the ensuing subtypes: competitive, uncompetitive, noncompetitive or mixed-type. Such inhibitions can be determined using Lineweaver–Burk plots. […] Based on the gained plot, a mixed type of inhibition by compound 3c was established. That is, the compound can bind to the enzyme–substrate complex or to the free enzyme. It also means that the compound is a reversible inhibitor; reversible compounds can be bound to the enzyme by non-covalent interactions such as ionic bonds, hydrophobic interactions and hydrogen bonds deprived of any chemical bonding or reaction with the enzyme. These interactions take place quickly and can be easily reversed. For that reason, the enzyme–inhibitor complex is rapidly degraded immediately before irreversible inhibition. […]
T1 sequence (P22303 32-614): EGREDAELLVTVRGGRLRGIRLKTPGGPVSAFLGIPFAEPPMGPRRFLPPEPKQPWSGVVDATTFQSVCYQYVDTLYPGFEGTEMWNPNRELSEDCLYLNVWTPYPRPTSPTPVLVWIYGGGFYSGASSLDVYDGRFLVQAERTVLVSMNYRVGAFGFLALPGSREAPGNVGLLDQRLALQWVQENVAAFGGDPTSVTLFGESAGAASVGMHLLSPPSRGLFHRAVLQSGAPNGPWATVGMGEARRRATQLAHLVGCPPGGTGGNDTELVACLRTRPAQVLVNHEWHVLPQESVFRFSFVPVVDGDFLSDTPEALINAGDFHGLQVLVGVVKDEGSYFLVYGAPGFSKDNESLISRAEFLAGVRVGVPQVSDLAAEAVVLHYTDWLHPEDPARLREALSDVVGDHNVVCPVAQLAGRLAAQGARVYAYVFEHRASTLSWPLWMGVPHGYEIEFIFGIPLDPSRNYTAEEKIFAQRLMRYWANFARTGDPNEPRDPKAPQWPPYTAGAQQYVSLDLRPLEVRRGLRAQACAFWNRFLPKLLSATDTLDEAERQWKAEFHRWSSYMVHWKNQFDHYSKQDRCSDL

Assay [2] addresses T1, AChE. Kind of assay: biochemical.
The next assay has as its target T2, hMAO-A (Homo sapiens, UniProt P21397).
T2 construct: purchased Sigma-Aldrich (Steinheim, Germany)
T2 sequence (P21397 1-527): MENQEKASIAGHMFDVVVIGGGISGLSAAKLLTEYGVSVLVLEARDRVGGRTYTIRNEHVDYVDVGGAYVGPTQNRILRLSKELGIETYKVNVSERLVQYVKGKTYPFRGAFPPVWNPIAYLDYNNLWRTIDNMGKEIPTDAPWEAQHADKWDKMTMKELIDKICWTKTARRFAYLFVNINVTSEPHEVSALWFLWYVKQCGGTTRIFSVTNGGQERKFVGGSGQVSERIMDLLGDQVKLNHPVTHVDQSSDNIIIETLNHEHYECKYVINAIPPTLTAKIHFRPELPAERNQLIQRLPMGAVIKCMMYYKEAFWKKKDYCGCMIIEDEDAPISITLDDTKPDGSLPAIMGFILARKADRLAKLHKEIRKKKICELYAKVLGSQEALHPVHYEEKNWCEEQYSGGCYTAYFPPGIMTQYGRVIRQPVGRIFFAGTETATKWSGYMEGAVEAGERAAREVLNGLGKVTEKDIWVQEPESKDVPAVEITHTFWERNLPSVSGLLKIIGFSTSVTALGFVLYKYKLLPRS
Kind of assay: Monoamine oxidase fluorometric inhibition assay, MAO-A. In kind it is biochemical. On the procedure: In order to investigate the monoamine oxidase enzyme inhibitory effects of synthesized compounds, MAO-A and MAO-B enzyme activities were performed by using a fluorometric inhibition method. Moclobemide and selegiline were used as standard drugs for MAO-A and MAO-B enzymes, respectively. Test compounds and standard drugs were used in the same concentrations as in AChE and BChE enzyme activity assays. In Table 2, MAO enzyme inhibitory results are given. […]. To investigate the MAO-A and MAO-B enzyme inhibition profiles of the synthesized compounds, the fluorometric enzyme inhibition assay was carried out, as previously defined by us. Ampliflu™ Red (10-Acetyl-3,7-dihydroxyphenoxazine) was used as a fluorescence reagent in this assay.

Another assay addresses T3, hMAO-B (Homo sapiens, UniProt P27338).
T3 construct: purchased Sigma-Aldrich (Steinheim, Germany)
T3 sequence (P27338 1-520): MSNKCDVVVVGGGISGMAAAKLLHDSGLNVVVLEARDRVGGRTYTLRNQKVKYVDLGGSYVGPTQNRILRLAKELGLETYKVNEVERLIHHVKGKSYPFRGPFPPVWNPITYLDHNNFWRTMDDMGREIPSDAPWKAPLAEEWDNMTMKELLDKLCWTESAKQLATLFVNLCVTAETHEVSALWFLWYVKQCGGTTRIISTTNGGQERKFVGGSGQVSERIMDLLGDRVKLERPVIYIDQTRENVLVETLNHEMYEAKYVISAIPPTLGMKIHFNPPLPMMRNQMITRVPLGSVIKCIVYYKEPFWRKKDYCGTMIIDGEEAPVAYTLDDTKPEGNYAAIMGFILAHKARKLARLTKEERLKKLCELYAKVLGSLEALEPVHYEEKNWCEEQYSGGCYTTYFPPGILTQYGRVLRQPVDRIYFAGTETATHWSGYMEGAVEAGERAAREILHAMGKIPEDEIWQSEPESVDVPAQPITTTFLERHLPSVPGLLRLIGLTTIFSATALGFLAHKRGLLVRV
Kind of assay: biochemical. On the procedure: Test compounds and standard drugs were used in the same concentrations as in AChE and BChE enzyme activity assays. […] To investigate the MAO-A and MAO-B enzyme inhibition profiles of the synthesized compounds, the fluorometric enzyme inhibition assay was carried out, as previously defined by us. Ampliflu™ Red (10-Acetyl-3,7-dihydroxyphenoxazine) was used as a fluorescence reagent in this assay.

A further assay concerns the target BChE (Homo sapiens, UniProt P06276). As to the kind of experiment: Anticholinesterase activity assay (modified Ellman method), BChE. In kind it is biochemical. The procedure: . Initially, all the obtained compounds were tested at 10^−3 M and 10^−4 M concentrations and the ChE inhibitory results are outlined in Table 1. […]. Compounds 3a, 3c and 3i indicated more than 50% activity at the 10^−4 M concentration. […]. […] According to the results of activity tests, some general results can be listed as follows. The compounds 3a, 3c and 3i contain the non-substituted, methoxy and trifluoromethyl substituents on the phenyl ring, respectively. […]
The inhibitory capacity of the obtained compounds on AChE and BChE biological activities was assessed using a modified Ellman’s spectrometric method, as described in our previous studies. Donepezil were used as a reference drug. All pipetting procedures in the enzyme inhibition assay were carried out via a robotics system, Biotek Precision XS (Winooski, VT, USA). A BioTek-Synergy H1 microplate reader (Winooski, VT, USA) was used to carry out measurements of percent inhibition at 412 nm, and the IC50 values of the selected compounds were performed as previously described.
On the technique in general: Ellman's reagent forms a yellow product with free thiols.

BChE, sequence (P06276 29-602): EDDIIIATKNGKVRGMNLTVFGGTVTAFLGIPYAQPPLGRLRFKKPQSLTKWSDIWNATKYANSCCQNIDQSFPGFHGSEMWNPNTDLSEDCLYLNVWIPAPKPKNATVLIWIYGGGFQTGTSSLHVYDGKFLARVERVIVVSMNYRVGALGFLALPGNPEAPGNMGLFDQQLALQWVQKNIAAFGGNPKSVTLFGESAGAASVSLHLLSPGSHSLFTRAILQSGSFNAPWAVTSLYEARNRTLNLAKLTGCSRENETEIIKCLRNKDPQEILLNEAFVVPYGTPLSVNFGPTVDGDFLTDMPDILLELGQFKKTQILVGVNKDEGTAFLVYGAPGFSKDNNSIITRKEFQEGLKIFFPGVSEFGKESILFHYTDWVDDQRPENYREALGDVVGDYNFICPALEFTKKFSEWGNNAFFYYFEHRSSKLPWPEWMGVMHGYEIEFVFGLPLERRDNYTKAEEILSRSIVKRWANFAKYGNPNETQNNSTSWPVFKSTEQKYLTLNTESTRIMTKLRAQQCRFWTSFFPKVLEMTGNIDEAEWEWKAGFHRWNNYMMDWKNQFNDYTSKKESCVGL

What is called Ki is the dissociation constant of the complex between target and ligand, obtained from inhibition or displacement. What is called inhibition is the change of the read-out against control, counted positive when it falls. The IC50 is the midpoint of a concentration-inhibition curve. In the case of `COc1ccc(-c2csc(NN=Cc3ccc(N4CCN(c5ccc(F)cc5)CC4)cc3)n2)cc1` [Compound 3c, 2-(2-(4-(4-(4-fluorophenyl)piperazin-1-yl)benzylidene)hydrazineyl)-4-(4-methoxyphenyl)thiazole], the type of inhibition entry on AChE [1] (Lineweaver–Burk plots, 2 × IC50, IC50 and IC50/2, substrate 600 µM to 18.75 µM) is “mixed type”. Moreover, at AChE [1] (secondary plot of Km/Vmax (slope) versus inhibitor concentration, read-out: steady-state inhibition constant (Ki)), the Ki is 0.0197 µM. Further, the inhibition at 1000 µM came out at 88.5 ± 1.1% against AChE [2] (10^−3 M); 38.6 ± 0.58% at hMAO-A (10^−3 M); 85.1 ± 1% on hMAO-B (10^−3 M, read-out: MAO-B % Inhibition); 28 ± 0.43% on BChE (10^−3 M). The half-inhibitory concentration (IC50) at AChE [2] (10^−3–10^−9 M concentrations) is 0.0317 ± 0.001 µM; at hMAO-B (read-out: MAO-B IC50), 1.02 ± 0.042 µM. In addition, the inhibition at 100 µM against hMAO-A (10^−4 M) was found to be 21.8 ± 0.55%; at hMAO-B (10^−4 M, read-out: MAO-B % Inhibition), 70.3 ± 0.85%; on BChE (10^−4 M), 21.6 ± 0.65%.
